{
  "source": "patent US6015823A",
  "about": "“4-Cyclohexylphenyl-oxazolines and their use for controlling animal pests” (Bayer Aktiengesellschaft, priority 1996, dated 2000)",
  "key": {"[1]": {"test_system": "common spider mite (Tetranychus urticae)", "test": "Tetranychus test (OP resistant/dip treatment)", "assay_type": "in vivo", "conditions": "for mortality at 0.0001 %: Tetranychus urticae, 312 h, read-out: destruction in %", "description": "Tetranychus test (OP resistant/dip treatment)\nSolvent: 3 parts by weight of dimethylformamide\n(§1) Emulsifier: 1 part by weight of alkylaryl polyglycol ether\nTo produce a suitable preparation of active compound, 1 part by weight of active compound is mixed with the stated amount of solvent and the stated amount of emulsifier, and the concentrate is diluted with emulsifier-containing water to the desired concentrations.\nBean plants (Phaseolus vulgaris) which are heavily infested by all stages of the common spider mite (Tetranychus urticae) are dipped into the active compound preparation of the desired concentration.\nAfter the desired period of time, the activity in % is determined. 100% means that all the spider mites have been killed; 0% means that none of the spider mites have been killed."}, "[2]": {"test_system": "mustard beetle larvae (Phaedon cochleariae)", "test": "Phaedon larvae test", "assay_type": "in vivo", "conditions": "active compound concentration 0.01%, after 7 days; for mortality at 0.01 %: Phaedon cochleariae, 168 h, read-out: destruction in %", "description": "(§2) Solvent: 7 parts by weight of dimethylformamide\nas §1\n(§3) To produce a suitable preparation of active compound, I part by weight of active compound is mixed with the stated amount of solvent and the stated amount of emulsifier, and the concentrate is diluted with water to the desired concentration.\nCabbage leaves (Brassica oleracea) are treated by being dipped into the active compound preparation of the desired concentration and are infested with mustard beetle larvae (Phaedon cochleariae), while the leaves are still moist.\nAfter the desired period of time, the destruction in % is determined. 100% means that all the beetle larvae have been killed; 0% means that none of the beetle larvae have been killed."}, "[3]": {"test_system": "peach aphids (Myzus persicae)", "test": "Myzus test", "assay_type": "in vivo", "conditions": "active compound concentration 0.1%, after 6 days; for mortality at 0.1 %: Myzus persicae, 144 h, read-out: destruction in %", "description": "as §2, §1\n(§4) To produce a suitable preparation of active compound, 1 part by weight of active compound is mixed with the stated amount of solvent and the stated amount of emulsifier, and the concentrate is diluted with water to the desired concentration.\nSeedlings of the broad bean (Vicia faba) which are infested with peach aphids (Myzus persicae) are dipped into the active compound preparation of the desired concentration and placed into a plastic box.\nAfter the desired period of time, the destruction in % is determined. 100% means that all the aphids have been killed; 0% means that none of the aphids have been killed."}, "[4]": {"test_system": "caterpillars of the owlet moth (Spodoptera frugiperda)", "test": "Spodoptera frugiperda test", "assay_type": "in vivo", "conditions": "active compound concentration 0.1%, after 7 days; for mortality at 0.1 %: Spodoptera frugiperda, 168 h, read-out: destruction in %", "description": "Spodoptera frugiperda test\nas §2, §1, §3\nCabbage leaves (Brassica oleracea) are treated by being dipped into the active compound preparation of the desired concentration and are infested with caterpillars of the owlet moth (Spodoptera frugiperda), while the leaves are still moist.\nAfter the desired period of time, the destruction in % is determined. 100% means that all the caterpillars have been killed; 0% means that none of the caterpillars have been killed."}, "[5]": {"test_system": "green rice leaf hopper (Nephotettix cincticeps)", "test": "Nephotettix test", "assay_type": "in vivo", "conditions": "active compound concentration 0.1%, after 6 days; for mortality at 0.1 %: Nephotettix cincticeps, 144 h, read-out: destruction in %", "description": "as §2, §1, §4\nRice seedlings (Oryza sativa) are treated by being dipped into the active compound preparation of the desired concentration and are infested with the green rice leaf hopper (Nephotettix cincticeps), while the seedlings are still moist.\nAfter the desired period of time, the destruction in % is determined. 100% means that all the leaf hoppers have been killed; 0% means that none of the leaf hoppers have been killed."}, "[6]": {"test": "logp: n-octanol/water partition coefficient by reversed phase HPLC", "assay_type": "physicochemical", "conditions": "h2o/ch3cn, read-out: logp (logarithm to base ten of the n-octanol/water partition coefficient)", "excerpt": "*) logp: Logarithm to base ten of the n-octanol/water partition coefficient, determined by reversed phase HPLC analysis using H2 O/CH3 CN.\n*^) logp: Logarithm to base ten of the noctanol/water partition\ncoefficient, determined by reversed phase HPLC analysis using H2"}, "[7]": {"test_system": "All larval stages of Lucilia cuprina (OP resistant)", "test": "Fly larvae test/development-inhibitory action", "assay_type": "in vivo", "conditions": "active compound concentration 1000 ppm, read-out: activity (larvicidal / development-inhibitory)", "description": "Fly larvae test/development-inhibitory action\nTest animals: All larval stages of Lucilia cuprina (OP resistant) [Pupae and adults (without contact with the active compound)]\nSolvent: 35 parts by weight of ethylene glycol monomethyl ether 35 parts by weight of nonylphenol polyglycol ether\nTo prepare a suitable formulation, 3 parts by weight of active compound are mixed with 7 parts of the abovementioned solvent-emulsifier mixture, and the resulting emulsion concentrate is diluted with water to the concentration desired in each case.\nFor each concentration, 30 to 50 larvae are transferred to horse meat (1 cm^3) located in glass tubes, and 500 μl of the test dilution are pipetted onto the meat. The glass tubes are placed into plastic beakers whose bottom is covered with sea sand and kept in a controlled-environmentcabinet (26° C.±1.5° C., 70% relative humidity±10%). Larvicidal activity is checked after 24 hours and 48 hours. After the larvae have left (about 72 hours), the glass tubes are removed and perforated plastic lids are placed on the beakers. After 11/2 times the development period (hatching of the control flies), the hatched flies and the pupae/puparia are counted.\nThe criterion for the activity is the death of the treated larvae after 48 hours (larvicidal effect), or inhibition of adults hatching from the pupae or inhibition of pupation. […]"}, "[8]": {"conditions": "A isomer (possible geometric isomer)"}, "[9]": {"conditions": "B isomer (possible geometric isomer)"}},
  "note": "Like-named read-outs stand apart in the source and are kept apart here.",
  "data": [
    {"smiles": "Oc1ccc(-c2ccc(C3COC(c4c(F)cccc4F)=N3)cc2)cc1", "note": "(centres unmarked) [(A), reference compound]", "values": [
      {"measurement": "destruction (in words)", "setting": "[1]; active compound concentration 0.0001%, after 13 days", "value": "no destruction"},
      {"measurement": "activity (in words)", "setting": "[2]", "value": "no activity"},
      {"measurement": "activity (in words)", "setting": "[3]", "value": "no activity"}
    ]},
    {"smiles": "COc1ccc(-c2ccc(C3COC(c4c(F)cccc4F)=N3)cc2)cc1", "note": "(centres unmarked) [(B), reference compound]", "values": [
      {"measurement": "activity (in words)", "setting": "[2]", "value": "no activity"},
      {"measurement": "activity (in words)", "setting": "[4]", "value": "no activity"},
      {"measurement": "activity (in words)", "setting": "[5]", "value": "no activity"}
    ]},
    {"smiles": "CC(C)Oc1ccc(-c2ccc(C3COC(c4c(F)cccc4F)=N3)cc2)cc1", "note": "(centres unmarked) [(C)]", "values": [
      {"measurement": "activity (in words)", "setting": "[5]", "value": "no activity"}
    ]},
    {"smiles": "CC(C)COc1ccc(-c2ccc(C3COC(c4c(F)cccc4F)=N3)cc2)cc1", "note": "(centres unmarked) [(D)]", "values": [
      {"measurement": "activity (in words)", "setting": "[5]", "value": "no activity"}
    ]},
    {"smiles": "CCCCOc1ccc(-c2ccc(C3COC(c4c(F)cccc4F)=N3)cc2)cc1", "note": "(centres unmarked) [(E)]", "values": [
      {"measurement": "activity (in words)", "setting": "[5]", "value": "no activity"}
    ]},
    {"smiles": "O=C1CCC(c2ccc(C3COC(c4c(F)cccc4F)=N3)cc2)CC1", "note": "(centres unmarked) [Example 1, 2-(2,6-difluorophenyl)-4-[4-(4-oxo-cyclohexyl)-phenyl]-1,3-oxazoline]", "values": [
      {"measurement": "mortality at 0.1 %", "setting": "[5]", "value": 90, "unit": "%"},
      {"measurement": "chromatographic logP", "setting": "[6]", "value": 2.28}
    ]},
    {"smiles": "CC(C)ON=C1CCC(c2ccc(C3COC(c4c(F)cccc4F)=N3)cc2)CC1", "note": "(centres unmarked) [Example 4]", "values": [
      {"measurement": "mortality at 0.0001 %", "setting": "[1]", "value": 98, "unit": "%"},
      {"measurement": "mortality at 0.01 %", "setting": "[2]", "value": 90, "unit": "%"},
      {"measurement": "mortality at 0.1 %", "setting": "[4]", "value": 100, "unit": "%"},
      {"measurement": "mortality at 0.1 %", "setting": "[3]", "value": 100, "unit": "%"},
      {"measurement": "chromatographic logP", "setting": "[6]", "value": 4.5}
    ]},
    {"smiles": "Fc1cccc(F)c1C1=NC(c2ccc(C3CCC4(CC3)OCC(c3ccc(Cl)cc3)O4)cc2)CO1", "note": "(centres unmarked) [Example 5, 2-(2,6-difluorophenyl)-4-[4-(4-p-chlorophenylethylenedioxo-cyclohexyl)-phenyl]-1,3-oxazoline]", "values": [
      {"measurement": "mortality at 0.0001 %", "setting": "[1]", "value": 98, "unit": "%"},
      {"measurement": "mortality at 0.01 %", "setting": "[2]", "value": 100, "unit": "%"},
      {"measurement": "mortality at 0.1 %", "setting": "[4]", "value": 100, "unit": "%"},
      {"measurement": "chromatographic logP", "setting": "[6]", "value": 5.37},
      {"measurement": "inhibition at 1000 ppm", "setting": "[7]", "value": 100, "unit": "%"}
    ]},
    {"smiles": "CCON=C1CCC(c2ccc(C3COC(c4c(F)cccc4F)=N3)cc2)CC1", "note": "(centres unmarked) [Example 6]", "values": [
      {"measurement": "mortality at 0.0001 %", "setting": "[1]", "value": 98, "unit": "%"},
      {"measurement": "mortality at 0.01 %", "setting": "[2]", "value": 100, "unit": "%"},
      {"measurement": "mortality at 0.1 %", "setting": "[4]", "value": 100, "unit": "%"},
      {"measurement": "mortality at 0.1 %", "setting": "[5]", "value": 100, "unit": "%"},
      {"measurement": "chromatographic logP", "setting": "[6]", "value": 4},
      {"measurement": "inhibition at 1000 ppm", "setting": "[7]", "value": 100, "unit": "%"}
    ]},
    {"smiles": "CC1OC2(CCC(c3ccc(C4COC(c5c(F)cccc5F)=N4)cc3)CC2)OC1C", "note": "(centres unmarked) [Example 13]", "values": [
      {"measurement": "mortality at 0.0001 %", "setting": "[1]", "value": 98, "unit": "%"},
      {"measurement": "mortality at 0.01 %", "setting": "[2]", "value": 100, "unit": "%"},
      {"measurement": "mortality at 0.1 %", "setting": "[5]", "value": 80, "unit": "%"},
      {"measurement": "chromatographic logP", "setting": "[6]; [8]", "value": 4.23},
      {"measurement": "chromatographic logP", "setting": "[6]; [9]", "value": 4.31}
    ]},
    {"smiles": "CC(C)(C)C1COC2(CCC(c3ccc(C4COC(c5c(F)cccc5F)=N4)cc3)CC2)O1", "note": "(centres unmarked) [Example 15]", "values": [
      {"measurement": "mortality at 0.0001 %", "setting": "[1]", "value": 98, "unit": "%"},
      {"measurement": "mortality at 0.01 %", "setting": "[2]", "value": 100, "unit": "%"},
      {"measurement": "mortality at 0.1 %", "setting": "[3]", "value": 90, "unit": "%"},
      {"measurement": "chromatographic logP", "setting": "[6]; [8]", "value": 5.41},
      {"measurement": "chromatographic logP", "setting": "[6]; [9]", "value": 5.48}
    ]},
    {"smiles": "CCCCCCCC1COC2(CCC(c3ccc(C4COC(c5c(F)cccc5F)=N4)cc3)CC2)O1", "note": "(centres unmarked) [Example 16]", "values": [
      {"measurement": "mortality at 0.0001 %", "setting": "[1]", "value": 98, "unit": "%"},
      {"measurement": "mortality at 0.1 %", "setting": "[3]", "value": 90, "unit": "%"},
      {"measurement": "chromatographic logP", "setting": "[6]; [8]", "value": 6.25},
      {"measurement": "chromatographic logP", "setting": "[6]; [9]", "value": 6.31}
    ]},
    {"smiles": "CCCCCCCCCC1COC2(CCC(c3ccc(C4COC(c5c(F)cccc5F)=N4)cc3)CC2)O1", "note": "(centres unmarked) [Example 17]", "values": [
      {"measurement": "mortality at 0.0001 %", "setting": "[1]", "value": 98, "unit": "%"},
      {"measurement": "mortality at 0.01 %", "setting": "[2]", "value": 100, "unit": "%"},
      {"measurement": "mortality at 0.1 %", "setting": "[4]", "value": 100, "unit": "%"},
      {"measurement": "mortality at 0.1 %", "setting": "[3]", "value": 90, "unit": "%"},
      {"measurement": "chromatographic logP", "setting": "[6]; [8]", "value": 7.12},
      {"measurement": "chromatographic logP", "setting": "[6]; [9]", "value": 7.2}
    ]},
    {"smiles": "Fc1cccc(F)c1C1=NC(c2ccc(C3CCC(=NOCc4ccc(Cl)cc4Cl)CC3)cc2)CO1", "note": "(centres unmarked) [Example 21]", "values": [
      {"measurement": "mortality at 0.0001 %", "setting": "[1]", "value": 98, "unit": "%"},
      {"measurement": "mortality at 0.1 %", "setting": "[3]", "value": 80, "unit": "%"},
      {"measurement": "chromatographic logP", "setting": "[6]", "value": 5.92}
    ]}
  ]
}
